# Test results published in the supplement of paper PMC11061612.
# Tests used:
# Test in all cases: combination Emax (second highest fraction inhibited in the dose matrix, 72 h); higher = more inhibition; extreme values may be limits of the assay
# [1] = system: KGN (Other Solid Carcinomas)
# How it was run: (§1)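 After 24 hours at 37°C and 5% CO2 in 1536-well plates, cells in DMEM/F12 or RPMI plus 10% FBS received two-drug dose matrices for 72 hours. Viability came from CellTiter-Glo 2.0 luminescence and was scaled as inhibition, anchored at 0 by vehicle wells and at 1 by blank wells. Combination Emax is taken as the second-highest inhibition in the matrix, and Bliss excess as the observed combination effect less EA + EB − EA·EB, with EA and EB the single-agent effects.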
# [2] = system: MOLT-4 (T-Lymphoblastic Leukemia)
# How it was run: as §1
# [3] = system: Ca-Ski (Cervical Carcinoma)
# How it was run: as §1
# [4] = system: Mo-T (Other Blood Carcinomas)
# How it was run: as §1
# [5] = system: ML-2 (Acute Myeloid Leukemia)
# How it was run: as §1
# [6] = system: SNU-387 (Hepatocellular Carcinoma)
# How it was run: as §1
# [7] = system: MV-4-11 (Acute Myeloid Leukemia)
# How it was run: as §1
# [8] = system: SW982 (Other Solid Carcinomas)
# How it was run: as §1
# [9] = system: ME-180 (Cervical Carcinoma)
# How it was run: as §1
# COLO-679 (Melanoma) = system: COLO-679 (Melanoma)
# How it was run: as §1
# [10] = system: EFO-21 (Ovarian Carcinoma)
# How it was run: as §1
# [11] = system: KMRC-1 (Kidney Carcinoma)
# How it was run: as §1
# [12] = system: HAL-01 (B-Lymphoblastic Leukemia)
# How it was run: as §1
Structure (SMILES),combination Emax [1],combination Emax [2],combination Emax [3],combination Emax [4],combination Emax [5],combination Emax [6],combination Emax [7],combination Emax [8],combination Emax [9],combination Emax (COLO-679 (Melanoma)),combination Emax [10],combination Emax [11],combination Emax [12]
"O=C(c1cc(Cc2n[nH]c(=O)c3ccccc23)ccc1F)N1CCN(C(=O)C2CC2)CC1 [Olaparib] + Cc1c2c(nn1C)CSCc1cc(n(C)n1)CSc1cc(c3ccccc3c1)OCCCc1c(C(=O)O)n(C)c3c-2c(Cl)ccc13 [AZD5991] (first compound max 10 µM, 7x7, partner max 1 µM)",0.162,0.878,0.146,0.0919,1,0.427,1,0.491,0.1,0.119,0.117,0.0973,0.269
"O=C(c1cc(Cc2n[nH]c(=O)c3ccccc23)ccc1F)N1CCN(C(=O)C2CC2)CC1 [Olaparib] + CN(CC[C@H](CSC1=CC=CC=C1)NC2=C(C=C(C=C2)S(=O)(=O)NC(=O)C3=CC=C(C=C3)N4CCC(CC4)[C@H](C5=CC=CC=C5C6=CC=C(C=C6)Cl)O)S(=O)(=O)C(F)(F)F)CCO [AZD4320] (first compound max 10 µM, 7x7, partner max 1 µM)",0.298,0.977,0.26,0.844,0.979,0.304,1,0.709,0.18,0.0175,0.172,0.219,0.65
"Cc1c2c(nn1C)CSCc1cc(n(C)n1)CSc1cc(c3ccccc3c1)OCCCc1c(C(=O)O)n(C)c3c-2c(Cl)ccc13 [AZD5991] + CS(=O)(=O)CCNCc1ccc(-c2ccc3ncnc(Nc4ccc(OCc5cccc(F)c5)c(Cl)c4)c3c2)o1 [Lapatinib] (first compound max 1 µM, 7x7, partner max 10 µM)",0.454,0.604,0.735,0.371,1,0.459,1,0.621,0.492,0.188,0.277,0.54,0.965
"CC1(C)CCC(CN2CCN(c3ccc(C(=O)NS(=O)(=O)c4ccc(NCC5CCOCC5)c([N+](=O)[O-])c4)c(Oc4cnc5[nH]ccc5c4)c3)CC2)=C(c2ccc(Cl)cc2)C1 [Venetoclax] + CS(=O)(=O)CCNCc1ccc(-c2ccc3ncnc(Nc4ccc(OCc5cccc(F)c5)c(Cl)c4)c3c2)o1 [Lapatinib] (first compound max 1 µM, 7x7, partner max 10 µM)",0.4,0.502,0.503,0.33,0.977,0.078,1,0.437,0.427,0.0296,0.153,0.595,0.968
"C[C@@H](Nc1cc(F)cc(F)c1)c1cc(C(=O)N(C)C)cc2c(=O)cc(N3CCOCC3)oc12 [AZD8186] + CC(=O)c1c(C)c2cnc(Nc3ccc(N4CCNCC4)cn3)nc2n(C2CCCC2)c1=O [Palbociclib] (first compound max 10 µM, 7x7, partner max 10 µM)",0.798,0.661,0.484,0.383,0.686,0.614,0.859,0.639,0.391,0.269,0.325,0.566,0.793
"C[C@@H]1COCCN1c1cc(C2([S@](C)(=N)=O)CC2)nc(-c2ccnc3[nH]ccc23)n1 [AZD6738] + Nc1ccn([C@@H]2O[C@H](CO)[C@@H](O)C2(F)F)c(=O)n1 [Gemcitabine] (first compound max 10 µM, 7x7, partner max 0.3 µM)",0.969,1,0.883,0.812,1,0.718,1,0.949,0.913,0.82,0.625,0.801,1
"C[C@@H](Nc1cc(F)cc(F)c1)c1cc(C(=O)N(C)C)cc2c(=O)cc(N3CCOCC3)oc12 [AZD8186] + C1CN(CCC1(C(=O)N[C@@H](CCO)C2=CC=C(C=C2)Cl)N)C3=NC=NC4=C3C=CN4 [AZD5363] (first compound max 10 µM, 7x7, partner max 10 µM)",0.556,0.437,0.463,0.347,0.558,0.472,0.731,0.512,0.579,0.273,0.235,0.618,0.623
"O=C(c1cc(Cc2n[nH]c(=O)c3ccccc23)ccc1F)N1CCN(C(=O)C2CC2)CC1 [Olaparib] + COc1nnc2ccc(N3CCC(c4ccc(OCCN5CCN(C)C(=O)[C@H]5C)cc4)CC3)nn12 [AZD5153] (first compound max 10 µM, 7x7, partner max 1 µM)",0.712,0.591,0.481,0.59,0.917,0.419,1,0.787,0.424,0.321,0.353,0.277,0.801
"Cc1c2c(nn1C)CSCc1cc(n(C)n1)CSc1cc(c3ccccc3c1)OCCCc1c(C(=O)O)n(C)c3c-2c(Cl)ccc13 [AZD5991] + Nc1ccn([C@@H]2O[C@H](CO)[C@@H](O)C2(F)F)c(=O)n1 [Gemcitabine] (first compound max 1 µM, 7x7, partner max 0.3 µM)",0.9,0.992,0.757,0.685,1,0.565,1,0.844,0.754,0.782,0.379,0.737,1
"CS(=O)(=O)CCNCc1ccc(-c2ccc3ncnc(Nc4ccc(OCc5cccc(F)c5)c(Cl)c4)c3c2)o1 [Lapatinib] + Cn1cnc2c(F)c(Nc3ccc(Br)cc3Cl)c(C(=O)NOCCO)cc21 [Selumetinib] (first compound max 10 µM, 7x7, partner max 10 µM)",0.535,0.501,0.671,0.477,0.715,0.62,0.642,0.66,0.476,0.749,0.331,0.696,0.516
"C=CCn1c(=O)c2cnc(Nc3ccc(N4CCN(C)CC4)cc3)nc2n1-c1cccc(C(C)(C)O)n1 [AZD1775] + Nc1ccn([C@@H]2O[C@H](CO)[C@@H](O)C2(F)F)c(=O)n1 [Gemcitabine] (first compound max 1 µM, partner max 0.3 µM)",0.892,1,0.828,0.766,1,0.552,1,0.888,0.94,0.76,0.482,0.717,1
"O=C(c1cc(Cc2n[nH]c(=O)c3ccccc23)ccc1F)N1CCN(C(=O)C2CC2)CC1 [Olaparib] + CC1(C)CCC(CN2CCN(c3ccc(C(=O)NS(=O)(=O)c4ccc(NCC5CCOCC5)c([N+](=O)[O-])c4)c(Oc4cnc5[nH]ccc5c4)c3)CC2)=C(c2ccc(Cl)cc2)C1 [Venetoclax] (first compound max 10 µM, 7x7, partner max 1 µM)",0.292,0.7,0.162,0.186,0.961,0.256,1,0.432,0.14,0.0175,0.0952,0.182,0.926
"Cc1nc(-c2cn3c(n2)-c2ccc(-c4cnn(C(C)(C)C(N)=O)c4)cc2OCC3)n(C(C)C)n1 [Taselisib] + O=C(Nc1ccc2[nH]nc(-c3ccncc3)c2c1)[C@@H]1CCN(CC(=O)N2CCN(c3ccc(-c4ncccn4)cc3)CC2)C1 [SCH772984] (first compound max 10 µM, 7x7, partner max 5 µM)",0.816,0.837,0.833,0.477,1,0.996,0.905,0.908,0.732,0.851,0.409,0.543,0.78
"C[C@@H]1COCCN1c1cc(C2([S@](C)(=N)=O)CC2)nc(-c2ccnc3[nH]ccc23)n1 [AZD6738] + C1CC(C1)(C(=O)[O-])C(=O)[O-].N.N.[Pt+2] [Carboplatin] (first compound max 10 µM, 7x7, partner max 10 µM)",0.79,0.984,0.649,0.366,0.916,0.289,0.974,0.665,0.663,0.625,0.263,0.521,0.963
"C[C@@H](Oc1cc(-c2cnn(C3CCNCC3)c2)cnc1N)c1c(Cl)ccc(F)c1Cl [Crizotinib] + CC1=C(C(=CC=C1)Cl)NC(=O)C2=CN=C(S2)NC3=CC(=NC(=N3)C)N4CCN(CC4)CCO [Dasatinib] (first compound max 10 µM, 7x7, partner max 2 µM)",0.978,0.826,0.942,0.383,0.969,0.743,0.985,1,0.644,0.297,0.701,0.815,0.961
"CN(CCO)CC[C@H](CSc1ccccc1)Nc1ccc(S(=O)(=O)NC(=O)c2ccc(N3CCC([C@@H](O)c4ccccc4-c4ccc(Cl)cc4)CC3)cc2)cc1S(=O)(=O)C(F)(F)F [AZD4320] + CS(=O)(=O)CCNCc1ccc(-c2ccc3ncnc(Nc4ccc(OCc5cccc(F)c5)c(Cl)c4)c3c2)o1 [Lapatinib] (first compound max 1 µM, 7x7, partner max 10 µM)",0.494,1,1,0.959,1,0.939,1,0.968,0.7,0.308,0.491,0.944,1
